In ChEMBL document CHEMBL6087464, “Design, Synthesis, and Biological Evaluation of 3,4-Dihydroisoquinolin-1(2H)-one Derivatives as Protein Arginine Methyltransferase 5 Inhibitors for the Treatment of Non-Hodgkin's Lymphoma” (J Med Chem, 2025):
Each block holds one molecule with its values, some of them ahead of it.

Tests used:
PRMT5/MEP50 complex = PRMT5/MEP50 complex (Homo sapiens, UniProt O14744); assay: Inhibition of recombinant N-terminal FLAG-tagged human full-length PRMT5/full length human MEP50 extracted from baculovirus expression system using [3H]-SAM as substrate preincubated for 15 mins followed by substrate addition and measured after 60 mins by multimode plate reader analysis
Z-138 = assay: Antiproliferative activity against human Z138 cells measured after 7 days by CellTiter-Glo luminescence cell viability assay; format: functional, cell-based; conditions: Z-138, 168 h
[1] = molecular target: Protein arginine N-methyltransferase 3 (Homo sapiens, UniProt O60678); assay: Inhibition of PRMT3 (unknown origin)
[2] = molecular target: Protein arginine N-methyltransferase 8 (Homo sapiens, UniProt Q9NR22); assay: Inhibition of PRMT8 (unknown origin)
[3] = molecular target: T1, Protein arginine N-methyltransferase 7 (Homo sapiens, UniProt Q9NVM4); assay: Inhibition of PRMT7 (unknown origin)
T1 sequence (Q9NVM4 whole entry): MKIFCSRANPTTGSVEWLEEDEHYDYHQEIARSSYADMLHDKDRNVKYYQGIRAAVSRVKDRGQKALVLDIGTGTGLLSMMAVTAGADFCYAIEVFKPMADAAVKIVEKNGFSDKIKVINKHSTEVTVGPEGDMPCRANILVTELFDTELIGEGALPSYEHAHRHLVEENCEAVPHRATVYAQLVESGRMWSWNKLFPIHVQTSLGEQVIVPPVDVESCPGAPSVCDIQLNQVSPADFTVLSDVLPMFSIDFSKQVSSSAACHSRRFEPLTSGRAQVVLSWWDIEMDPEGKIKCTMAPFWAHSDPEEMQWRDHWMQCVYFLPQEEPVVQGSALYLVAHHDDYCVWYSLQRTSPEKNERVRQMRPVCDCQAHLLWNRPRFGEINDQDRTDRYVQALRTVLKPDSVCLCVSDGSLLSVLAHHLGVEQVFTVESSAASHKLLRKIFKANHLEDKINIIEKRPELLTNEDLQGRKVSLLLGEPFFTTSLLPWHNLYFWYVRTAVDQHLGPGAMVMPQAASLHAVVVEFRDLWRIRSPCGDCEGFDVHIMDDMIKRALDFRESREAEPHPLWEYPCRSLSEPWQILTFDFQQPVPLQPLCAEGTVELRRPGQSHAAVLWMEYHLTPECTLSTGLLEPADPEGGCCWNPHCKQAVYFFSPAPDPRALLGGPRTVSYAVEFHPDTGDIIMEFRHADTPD

[4] = molecular target: Protein arginine N-methyltransferase 6 (Homo sapiens, UniProt Q96LA8); assay: Inhibition of PRMT6 (unknown origin)
[5] = molecular target: T2, Histone-arginine methyltransferase CARM1 (Homo sapiens, UniProt Q86X55); assay: Inhibition of PRMT4 (unknown origin)
T2 sequence (Q86X55 whole entry): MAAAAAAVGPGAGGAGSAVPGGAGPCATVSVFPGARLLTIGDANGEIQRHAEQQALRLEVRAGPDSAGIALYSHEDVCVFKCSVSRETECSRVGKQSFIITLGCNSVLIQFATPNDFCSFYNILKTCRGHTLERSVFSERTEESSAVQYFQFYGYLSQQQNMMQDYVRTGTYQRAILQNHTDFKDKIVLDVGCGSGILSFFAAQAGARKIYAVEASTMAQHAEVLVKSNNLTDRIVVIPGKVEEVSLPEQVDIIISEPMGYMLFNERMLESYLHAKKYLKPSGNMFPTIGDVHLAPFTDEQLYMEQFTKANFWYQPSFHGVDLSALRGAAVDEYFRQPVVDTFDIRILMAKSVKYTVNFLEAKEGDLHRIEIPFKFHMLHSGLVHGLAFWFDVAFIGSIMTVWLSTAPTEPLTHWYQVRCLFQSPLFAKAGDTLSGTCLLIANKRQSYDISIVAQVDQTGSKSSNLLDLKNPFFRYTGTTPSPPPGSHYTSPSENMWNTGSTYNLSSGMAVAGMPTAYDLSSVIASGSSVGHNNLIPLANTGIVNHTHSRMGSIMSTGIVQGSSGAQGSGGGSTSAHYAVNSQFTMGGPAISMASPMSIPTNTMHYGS

[6] = molecular target: Voltage-gated inwardly rectifying potassium channel KCNH2 (Homo sapiens, UniProt Q12809); assay: Inhibition of human ERG; format: toxicity
[7] = Oral bioavailability in Sprague-Dawley rat at 10 mg/kg by LC-MS/MS analysis; format: ADME, organism-based; conditions: in vivo
[8] = Volume of distribution in Sprague-Dawley rat at 2 mg/kg, iv by LC-MS/MS analysis; format: ADME, organism-based; conditions: in vivo
[9] = Cmax in Sprague-Dawley rat at 10 mg/kg, po by LC-MS/MS analysis; format: ADME, organism-based; conditions: in vivo
[10] = Half-life in Sprague-Dawley rat at 2 mg/kg, iv by LC-MS/MS analysis; format: ADME, organism-based; conditions: in vivo
[11] = AUC (0 to t) in Sprague-Dawley rat at 2 mg/kg, iv by LC-MS/MS analysis; format: ADME, organism-based; conditions: in vivo
[12] = Cmax in Sprague-Dawley rat at 2 mg/kg, iv by LC-MS/MS analysis; format: ADME, organism-based; conditions: in vivo
[13] = AUC (0 to t) in Sprague-Dawley rat at 10 mg/kg, po by LC-MS/MS analysis; format: ADME, organism-based; conditions: in vivo; for AUC(0-t): Sprague-Dawley
[14] = MRT (0 to t) in Sprague-Dawley rat at 2 mg/kg, iv by LC-MS/MS analysis; format: ADME, organism-based; conditions: in vivo
[15] = MRT (0 to t) in Sprague-Dawley rat at 10 mg/kg, po by LC-MS/MS analysis; format: ADME, organism-based; conditions: in vivo
[16] = Half-life in Sprague-Dawley rat at 10 mg/kg, po by LC-MS/MS analysis; format: ADME, organism-based; conditions: in vivo; for half-life: Sprague-Dawley
[17] = Tmax in Sprague-Dawley rat at 10 mg/kg, po by LC-MS/MS analysis; format: ADME, organism-based; conditions: in vivo
[18] = Clearance in Sprague-Dawley rat at 2 mg/kg, iv by LC-MS/MS analysis; format: ADME, organism-based; conditions: in vivo

Chain of PRMT5/MEP50 complex (O14744 whole entry): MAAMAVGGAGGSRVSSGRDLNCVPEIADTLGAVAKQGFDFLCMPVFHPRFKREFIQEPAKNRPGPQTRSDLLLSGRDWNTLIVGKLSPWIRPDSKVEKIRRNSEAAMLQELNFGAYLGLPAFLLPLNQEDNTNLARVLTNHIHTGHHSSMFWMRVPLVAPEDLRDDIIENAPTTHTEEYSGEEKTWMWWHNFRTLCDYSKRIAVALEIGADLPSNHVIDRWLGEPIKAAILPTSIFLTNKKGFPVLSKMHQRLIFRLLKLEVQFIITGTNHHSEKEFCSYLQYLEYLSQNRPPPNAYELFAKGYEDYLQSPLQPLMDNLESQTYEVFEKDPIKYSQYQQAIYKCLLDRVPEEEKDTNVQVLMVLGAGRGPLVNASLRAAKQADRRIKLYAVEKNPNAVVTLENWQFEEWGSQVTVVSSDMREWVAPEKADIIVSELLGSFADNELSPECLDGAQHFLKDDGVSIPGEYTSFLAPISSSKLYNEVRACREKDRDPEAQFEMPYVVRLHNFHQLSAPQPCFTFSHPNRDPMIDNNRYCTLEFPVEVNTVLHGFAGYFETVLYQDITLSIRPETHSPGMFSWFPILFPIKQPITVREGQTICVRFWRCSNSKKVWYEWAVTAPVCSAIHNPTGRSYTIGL
Chain of PRMT5/MEP50 complex (Q9BQA1 whole entry, further chain): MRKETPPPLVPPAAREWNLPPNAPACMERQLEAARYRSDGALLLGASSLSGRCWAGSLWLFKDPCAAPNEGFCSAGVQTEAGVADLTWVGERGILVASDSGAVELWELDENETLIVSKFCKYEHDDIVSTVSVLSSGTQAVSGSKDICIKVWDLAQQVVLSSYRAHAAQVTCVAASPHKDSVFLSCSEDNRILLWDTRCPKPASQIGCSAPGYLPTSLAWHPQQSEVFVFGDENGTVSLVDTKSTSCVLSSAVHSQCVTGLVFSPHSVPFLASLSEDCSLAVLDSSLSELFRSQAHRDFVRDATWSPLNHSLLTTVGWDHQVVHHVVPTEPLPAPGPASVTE
Chain of Voltage-gated inwardly rectifying potassium channel KCNH2 (Q12809 whole entry): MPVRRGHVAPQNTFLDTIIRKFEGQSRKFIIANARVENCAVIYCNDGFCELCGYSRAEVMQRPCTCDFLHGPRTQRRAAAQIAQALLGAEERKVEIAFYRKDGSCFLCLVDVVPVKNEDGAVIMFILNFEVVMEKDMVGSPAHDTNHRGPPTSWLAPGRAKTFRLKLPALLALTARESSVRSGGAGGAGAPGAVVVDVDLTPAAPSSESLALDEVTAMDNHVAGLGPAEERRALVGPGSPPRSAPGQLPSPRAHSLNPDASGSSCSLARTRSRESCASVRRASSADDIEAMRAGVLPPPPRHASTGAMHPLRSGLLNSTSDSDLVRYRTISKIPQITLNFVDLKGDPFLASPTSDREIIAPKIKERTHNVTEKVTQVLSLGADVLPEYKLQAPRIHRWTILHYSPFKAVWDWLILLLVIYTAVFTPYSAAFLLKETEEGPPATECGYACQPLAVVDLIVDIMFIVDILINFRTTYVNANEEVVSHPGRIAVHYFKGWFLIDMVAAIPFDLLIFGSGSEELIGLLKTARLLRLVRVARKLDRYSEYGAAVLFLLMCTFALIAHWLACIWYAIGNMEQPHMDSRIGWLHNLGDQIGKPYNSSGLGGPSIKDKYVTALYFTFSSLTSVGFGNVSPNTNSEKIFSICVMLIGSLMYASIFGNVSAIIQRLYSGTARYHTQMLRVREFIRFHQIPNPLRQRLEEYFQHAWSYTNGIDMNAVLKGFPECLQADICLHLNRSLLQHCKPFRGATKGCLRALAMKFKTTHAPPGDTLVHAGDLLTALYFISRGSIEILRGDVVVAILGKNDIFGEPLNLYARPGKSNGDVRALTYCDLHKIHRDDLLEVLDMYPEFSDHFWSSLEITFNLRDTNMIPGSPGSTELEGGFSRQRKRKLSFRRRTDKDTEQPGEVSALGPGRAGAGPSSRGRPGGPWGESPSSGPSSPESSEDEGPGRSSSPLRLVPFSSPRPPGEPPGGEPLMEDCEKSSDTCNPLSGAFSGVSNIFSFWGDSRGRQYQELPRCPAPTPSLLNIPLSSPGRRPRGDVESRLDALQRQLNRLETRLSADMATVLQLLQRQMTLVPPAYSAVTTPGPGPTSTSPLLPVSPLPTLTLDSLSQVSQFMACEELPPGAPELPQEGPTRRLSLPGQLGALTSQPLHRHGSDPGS
Chain of Protein arginine N-methyltransferase 8 (Q9NR22 whole entry): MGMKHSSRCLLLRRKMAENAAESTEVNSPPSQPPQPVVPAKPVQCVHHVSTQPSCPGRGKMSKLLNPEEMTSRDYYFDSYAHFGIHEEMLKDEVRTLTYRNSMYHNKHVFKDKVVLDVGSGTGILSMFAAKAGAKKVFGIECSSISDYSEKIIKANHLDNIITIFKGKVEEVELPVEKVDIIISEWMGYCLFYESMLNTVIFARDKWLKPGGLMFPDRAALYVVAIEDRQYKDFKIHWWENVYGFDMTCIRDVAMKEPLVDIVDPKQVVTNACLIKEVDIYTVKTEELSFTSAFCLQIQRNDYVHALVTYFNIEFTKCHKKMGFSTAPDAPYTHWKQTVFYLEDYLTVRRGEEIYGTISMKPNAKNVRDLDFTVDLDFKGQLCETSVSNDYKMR
Chain of Protein arginine N-methyltransferase 3 (O60678 whole entry): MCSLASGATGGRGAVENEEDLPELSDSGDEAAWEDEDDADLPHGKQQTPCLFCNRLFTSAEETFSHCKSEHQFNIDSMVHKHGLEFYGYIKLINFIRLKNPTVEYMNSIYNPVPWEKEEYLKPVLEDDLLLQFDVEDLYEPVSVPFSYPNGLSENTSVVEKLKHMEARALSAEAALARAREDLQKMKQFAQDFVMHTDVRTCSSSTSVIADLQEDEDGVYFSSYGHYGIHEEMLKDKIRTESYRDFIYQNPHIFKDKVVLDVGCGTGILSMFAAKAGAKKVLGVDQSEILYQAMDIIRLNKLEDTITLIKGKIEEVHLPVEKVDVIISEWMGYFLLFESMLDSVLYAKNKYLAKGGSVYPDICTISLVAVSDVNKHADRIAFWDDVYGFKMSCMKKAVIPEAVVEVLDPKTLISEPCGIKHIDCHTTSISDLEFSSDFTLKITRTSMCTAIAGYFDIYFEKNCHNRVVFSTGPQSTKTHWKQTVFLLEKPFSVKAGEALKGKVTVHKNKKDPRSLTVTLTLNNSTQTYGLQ
Chain of Protein arginine N-methyltransferase 6 (Q96LA8 whole entry): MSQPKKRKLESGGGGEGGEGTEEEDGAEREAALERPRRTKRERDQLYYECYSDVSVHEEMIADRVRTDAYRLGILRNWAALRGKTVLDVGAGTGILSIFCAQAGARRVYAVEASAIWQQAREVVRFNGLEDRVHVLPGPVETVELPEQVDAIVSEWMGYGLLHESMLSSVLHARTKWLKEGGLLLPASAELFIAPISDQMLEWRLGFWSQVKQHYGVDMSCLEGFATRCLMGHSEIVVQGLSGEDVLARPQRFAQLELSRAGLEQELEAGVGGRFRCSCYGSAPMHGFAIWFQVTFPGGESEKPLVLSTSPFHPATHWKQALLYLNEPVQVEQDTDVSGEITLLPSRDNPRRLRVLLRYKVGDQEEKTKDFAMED

Compound: C[S+](CC[C@H](N)C(=O)[O-])C[C@H]1O[C@@H](n2cnc3c(N)ncnc32)[C@H](O)[C@@H]1O (some centres undefined) [ADEMETIONINE]
IC50 [1]: 5170 nM
IC50 [2]: 759 nM
IC50 [3]: 491 nM
IC50 [4]: 1260 nM
IC50 [5]: 42 nM
IC50 (PRMT5/MEP50 complex): 793 nM

Compound: CC(=O)N1CCC(Nc2ccc3c(c2)C(=O)N(C[C@H](O)CN2CCc4ccccc4C2)CC32CCC2)CC1
IC50 [6]: 460 nM
bioavailability [7]: 23.4%
Vd [8]: 1.6 L/kg
Cmax ([9]; Sprague-Dawley, read-out: Cmax): 840 ng/mL
half-life [10]: 48 min
AUC(0-t) [11]: 1370 ng·h/mL
IC50 (PRMT5/MEP50 complex): 26.4 nM
IC50 (Z-138): 3.89 nM
Cmax [12]: 1770 ng/mL
AUC(0-t) [13]: 1600 ng·h/mL
MRT last [14]: 48 min
MRT last [15]: 132 min
half-life [16]: 210 min
Tmax ([17]; Sprague-Dawley, read-out: Tmax): 18 min
clearance [18]: 25 mL/min/kg

Compound: O=C1c2cc(NC3CCN(C(=O)C4CC4)CC3)ccc2C2(CCCC2)CN1C[C@H](O)CN1CCc2ccccc2C1
IC50 (PRMT5/MEP50 complex): 45.5 nM
IC50 (Z-138): 20.5 nM

Compound: O=C(Nc1ccc2c(c1)C(=O)N(C[C@H](O)CN1CCc3ccccc3C1)CC21CC1)C1CCOCC1
IC50 (PRMT5/MEP50 complex): 16.7 nM
IC50 (Z-138): 282 nM

Compound: CC(=O)N1CCC(Nc2ccc3c(c2)C(=O)N(C[C@H](O)CN2CCc4ccccc4C2)CC3)CC1
IC50 (PRMT5/MEP50 complex): 37.5 nM
IC50 (Z-138): 14.3 nM

Compound: CC(=O)N1CCC(C(=O)N2CCC3(CC2)C(=O)N(C[C@H](O)CN2CCc4ccccc4C2)c2ccccc23)CC1
IC50 (PRMT5/MEP50 complex): 3060 nM

Compound: O=C1c2cc(NC3CCNCC3)ccc2C2(CC2)CN1C[C@H](O)CN1CCc2ccccc2C1
IC50 (PRMT5/MEP50 complex): 9.01 nM
IC50 (Z-138): 588 nM

Compound: CC(=O)N1CCC(Nc2ccc3c(n2)C(=O)N(C[C@H](O)CN2CCc4ccccc4C2)CC32CC2)CC1
IC50 (PRMT5/MEP50 complex): 86.9 nM
IC50 (Z-138): 279 nM

Compound: CC(=O)N1CCC(Nc2ccc3c(c2)N(C[C@H](O)CN2CCc4ccccc4C2)C(=O)C3)CC1
IC50 (PRMT5/MEP50 complex): > 10000 nM

Compound: CC(=O)N1CCC(Nc2ccc3c(c2)C(=O)N(C[C@H](O)CN2CCc4ccccc4C2)CC32CCOC2)CC1 (some centres undefined)
IC50 (PRMT5/MEP50 complex): 116 nM

More lines, main results first:

IC50 (PRMT5/MEP50 complex): 8.61 nM
Compound: CC(=O)N1CCC(C(=O)Nc2ccc3c(c2)C(=O)N(C[C@H](O)CN2CCc4ccccc4C2)CC32CC2)CC1
IC50 (Z-138): 103 nM

IC50 (PRMT5/MEP50 complex): 249 nM
Compound: O=C1c2cc(NS(=O)(=O)c3ccccc3)ccc2C2(CC2)CN1C[C@H](O)CN1CCc2ccccc2C1

IC50 (PRMT5/MEP50 complex): 3.95 nM
Compound: CC(=O)N1CCC(C(=O)Nc2ccc3c(c2)C(=O)N(C[C@H](O)CN2CCc4ccccc4C2)CC32CCC2)CC1
IC50 (Z-138): 91.8 nM

bioavailability [7]: 16.4%
Vd [8]: 3 L/kg
Cmax ([9]; Sprague-Dawley, read-out: Cmax): 145 ng/mL
half-life [10]: 24 min
AUC(0-t) [11]: 435 ng·h/mL
Cmax [12]: 678 ng/mL
AUC(0-t) [13]: 356 ng·h/mL
MRT last [14]: 54 min
MRT last [15]: 12 min
half-life [16]: 24 min
Tmax ([17]; Sprague-Dawley, read-out: Tmax): 24 min
clearance [18]: 38.3 mL/min/kg
Compound: CC(=O)N1CCC(Nc2cc3c(cn2)C2(CC2)CN(C[C@H](O)CN2CCc4ccccc4C2)C3=O)CC1
IC50 (Z-138): 3.07 nM

bioavailability [7]: 24.2%
Vd [8]: 2.8 L/kg
Cmax ([9]; po, 10 mg/kg): 149.5 ng/mL
half-life [10]: 78 min
AUC(0-t) [11]: 656 ng·h/mL
IC50 (PRMT5/MEP50 complex): 22.6 nM
Cmax [12]: 943 ng/mL
AUCt ([13]; po, 10 mg/kg): 794.2 ng·h/mL
MRT last [14]: 60 min
MRT last [15]: 6 min
t1/2 ([16]; po, 10 mg/kg): 18 min
Tmax ([17]; po, 10 mg/kg): 6 min
clearance [18]: 25 mL/min/kg
Compound: CC(=O)N1CCC(Nc2ccc3c(c2)C(=O)N(C[C@H](O)CN2CCc4ccccc4C2)CC32CCCC2)CC1
IC50 [6]: 350 nM
IC50 (Z-138): 10.3 nM

IC50 (PRMT5/MEP50 complex): 10.6 nM
Compound: O=C(Nc1ccc2c(c1)C(=O)N(C[C@H](O)CN1CCc3ccccc3C1)CC21CC1)c1ccccc1
IC50 (Z-138): 400 nM

IC50 (PRMT5/MEP50 complex): 9.89 nM
Compound: Cn1cc(C(=O)Nc2ccc3c(c2)C(=O)N(C[C@H](O)CN2CCc4ccccc4C2)CC32CC2)cn1
IC50 (Z-138): 292 nM

bioavailability [7]: 63.1%
Vd [8]: 2.6 L/kg
Cmax ([9]; Sprague-Dawley, read-out: Cmax): 1150 ng/mL
half-life [10]: 24 min
AUC(0-t) [11]: 464 ng·h/mL
IC50 (PRMT5/MEP50 complex): 18.3 nM
Cmax [12]: 1560 ng/mL
AUC(0-t) [13]: 1460 ng·h/mL
MRT last [14]: 18 min
MRT last [15]: 60 min
half-life [16]: 54 min
Tmax ([17]; Sprague-Dawley, read-out: Tmax): 18 min
clearance [18]: 71.7 mL/min/kg
Compound: CC(=O)N1CCC(Nc2ccc3c(c2)C(=O)N(C[C@H](O)CN2CCc4ccccc4C2)CC32CC2)CC1
IC50 (Z-138): 4.33 nM

IC50 (PRMT5/MEP50 complex): 16.1 nM
Compound: Cn1cc(C(=O)Nc2ccc3c(c2)C(=O)N(C[C@H](O)CN2CCc4ccccc4C2)CC32CCC2)cn1
IC50 (Z-138): 318 nM

IC50 (PRMT5/MEP50 complex): > 10000 nM
Compound: CC(=O)N1CCC(C(=O)N2CCC3(CC2)CCN(C[C@H](O)CN2CCc4ccccc4C2)C3=O)CC1

IC50 (PRMT5/MEP50 complex): > 10000 nM
Compound: CC(=O)N1CCC(Nc2ccc3c(c2)CC(=O)N3C[C@H](O)CN2CCc3ccccc3C2)CC1
